Reference: patent US4650798A, “Antiarrhythmic 2,2-dialkyl-1-(aminoalkyl)-spiro[chroman-4,4'-imidazolidine]-2',5'-dione s” (priority 1984, dated 1987)

Key:
[1] = test system: Chloroform-induced arrhythmia; test: Chloroform-induced arrhythmia (mice); settings: for minimal effective dose: Mus musculus, po, 1 h, read-out: Effective dose; for Lethal dose: peroral, mice
Method: (1) Chloroform-induced arrhythmia (mice):
Ventricular arrhythmia was caused experimentally in mice by the following method.
The mice were placed in a device filled with chloroform gas. After expiring, the ventricular pulse was counted from a record of an electrocardiogram. The antiarrhythmic activity of the test compound was determined based on its effect of relieving tachycardia. […] The compounds were tested by administration by two routes, i.e. peroral and intravenous injection. […] As comparative standard medicines, quinidine, disopyramide and phenytoin were employed. This method is taught in the publication, J. Pharmacol. Exp. Ther. 160,22 (1968), by J. W. Lawson.

[2] = Acute toxicity (rats), peroral; settings: rat, in vivo, po
From the text: (3) Acute toxicity (rats):
The acute toxicity tests on rats (peroral administration) were effected using typical compounds of the present invention, i.e. 6-chloro-2,2-dimethyl-1'-[3-(4-hydroxypiperidino)propyl]spiro[chroman-4,4'-imidazolidine]-2',5'-dione (compound 1) and 2,2-dimethyl-6-fluoro-1'-[3-(4-hydroxypiperidino)propyl]-spiro[chroman-4,4'-imidazolidine]-2',5'-dione (compound 2).

myocardia = test: Contraction of the myocardia; settings: dose several times as much as that required for the antiarrhythmic effects
From the text: This property is quite preferred when they are used as antiarrhythmic agents.

SMILES: COC1CCN(CCCN2C(=O)NC3(CC(C)(C)Oc4ccc(F)cc43)C2=O)CC1 (stereo not shown)
- minimal effective dose [1]: 25 mg/kg
- Lethal dose [1]: 400 mg/kg

SMILES: C=CC1CN2CCC1CC2C(O)c1ccnc2ccc(OC)cc12 (stereo not shown) [Quinidine sulfonate, reference compound]
- minimal effective dose [1]: 200 mg/kg
- Lethal dose [1]: 800 mg/kg

SMILES: O=C1NC(=O)C(c2ccccc2)(c2ccccc2)N1 [Phenytoin sodium, reference compound]
- minimal effective dose [1]: 100 mg/kg
- Lethal dose [1]: > 800 mg/kg

SMILES: CC1CC2(NC(=O)N(CCCN(C)C)C2=O)c2cc(Cl)ccc2O1 (stereo not shown)
- minimal effective dose [1]: 12.5 mg/kg
- Lethal dose [1]: 50 mg/kg

SMILES: CC1(C)CC2(NC(=O)N(CCCN3CCC(O)CC3)C2=O)c2cc(F)ccc2O1 (stereo not shown) [Compound 2, 2,2-dimethyl-6-fluoro-1'-[3-(4-hydroxypiperidino)propyl]-spiro[chroman-4,4'-imidazolidine]-2',5'-dione]
- LD50 ([2]; female rats): 780 mg/kg
- LD50 ([2]; male rats): 860 mg/kg

SMILES: CC(C)N(CCC(C(N)=O)(c1ccccc1)c1ccccn1)C(C)C (stereo not shown) [disopyramide]
- contraction power of the myocardia (myocardia): reduce the contraction power of the myocardia

SMILES: CC(C)N(CCC(C(N)=O)(c1ccccc1)c1ccccn1)C(C)C (stereo not shown) [Disopyramide phosphate, reference compound]
- minimal effective dose [1]: 50 mg/kg
- Lethal dose [1]: 600 mg/kg

SMILES: C=C[C@H]1C[N@@]2CC[C@H]1C[C@@H]2[C@@H](O)c1ccnc2ccc(OC)cc12 [quinidine]
- contraction power of the myocardia (myocardia): reduce the contraction power of the myocardia

SMILES: CCN(CC)CCN1C(=O)NC2(CC(C)(C)Oc3ccc(F)cc32)C1=O (stereo not shown)
- minimal effective dose [1]: 12.5 mg/kg
- Lethal dose [1]: 200 mg/kg

SMILES: CC1(C)CC2(NC(=O)N(CCCN3CCC(O)CC3)C2=O)c2cc(F)ccc2O1 (stereo not shown) [drawing 13]
- minimal effective dose [1]: 25 mg/kg
- Lethal dose [1]: 400 mg/kg

SMILES: CC(C)N(CCN1C(=O)NC2(CC(C)(C)Oc3ccc(F)cc32)C1=O)C(C)C (stereo not shown)
- minimal effective dose [1]: 25 mg/kg
- Lethal dose [1]: 200 mg/kg

SMILES: CC1(C)CC2(NC(=O)N(CCCN3CCC(O)CC3)C2=O)c2cc(Cl)cc(Cl)c2O1 (stereo not shown)
- minimal effective dose [1]: 12.5 mg/kg
- Lethal dose [1]: 400 mg/kg

SMILES: CCC1(CC)CC2(NC(=O)N(CCCN3CCC(O)CC3)C2=O)c2cc(F)ccc2O1 (stereo not shown)
- minimal effective dose [1]: 25 mg/kg
- Lethal dose [1]: 400 mg/kg

SMILES: CN(C)CCN1C(=O)NC2(CC(C)(C)Oc3ccc(F)cc32)C1=O (stereo not shown)
- minimal effective dose [1]: 50 mg/kg
- Lethal dose [1]: 400 mg/kg

SMILES: CC1(C)CC2(NC(=O)N(CCCN3CCC(O)CC3)C2=O)c2cc(Cl)ccc2O1 (stereo not shown) [Compound 1, 6-chloro-2,2-dimethyl-1'-[3-(4-hydroxypiperidino)propyl]spiro[chroman-4,4'-imidazolidine]-2',5'-dione]
- LD50 ([2]; female rats): 858 mg/kg
- LD50 ([2]; male rats): 930 mg/kg

SMILES: CC1(C)CC2(NC(=O)N(CCCN3CCC(c4ccccc4)CC3)C2=O)c2cc(F)ccc2O1 (stereo not shown)
- minimal effective dose [1]: 50 mg/kg
- Lethal dose [1]: 200 mg/kg

SMILES: CC1(C)CC2(NC(=O)N(CCCN3CCC(O)CC3)C2=O)c2cc(Cl)ccc2O1 (stereo not shown) [drawing 12]
- minimal effective dose [1]: 25 mg/kg
- Lethal dose [1]: 400 mg/kg

SMILES: CCC1(CC)CC2(NC(=O)N(CCCN(C)C)C2=O)c2cc(Cl)ccc2O1 (stereo not shown)
- minimal effective dose [1]: 25 mg/kg
- Lethal dose [1]: 400 mg/kg
